GI50 and TGI data for 16 molecules are collected here from PubChem BioAssay (NCI).

The structures appear in SMILES notation. Where “and” joins values, the source holds several entries; their conditions need not be identical. Equal entries are not always repeated.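 A five-concentration, 48-hour dose response in 96-well plates underlies each endpoint, interpolated linearly between surrounding concentrations. GI50 = concentration required for 50% inhibition of growth. TGI: concentration producing complete growth inhibition.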 A value given as a limit tells only on which side of the number the result lay.

Holding throughout (assay): growth of human tumour cells (NCI), 48 h
Assay [1] has as its system MDA-MB-231 breast.
For assay [2], the system named is HCT-15 colon.
For assay [3], the system named is SNB-19 CNS.
In assay [4] the test system is OVCAR-4 ovarian.
Assay [5] relates to DU-145 prostate.
Assay [6] concerns UACC-257 melanoma.
For assay [7], the system named is OVCAR-8 ovarian.
For assay [8], the system named is SK-MEL-28 melanoma.
In assay [9] the test system is M14 melanoma.
Assay [10] relates to MOLT-4 leukemia.

With `COc1ccc2cc1Oc1ccc(cc1)CC1c3c(cc(OC)c4c3Oc3cc5c(cc3O4)CCNC5C2)CCN1C` (configuration not stated), the GI50 was 1.73 µM in assay [1]; 1.86 µM in [2]; 1.61 µM in assay [4]; 1.54 µM in assay [5]; 1.9 µM in [6]; 1.84 µM in [8]. In addition, the GI50 in assay [9] is 1.73 µM. For the same molecule, the TGI in assay [1] is 3.35 µM; in [2], 3.73 µM and 4.31 µM; in [3], 4.32 µM; in [4] it was 6.16 µM and 3.13 µM; in [5] it was 2.87 µM; in assay [6], 3.14 µM and 3.5 µM. The TGI in assay [7] is 3.2 µM; in assay [8], 3.5 µM and 3.54 µM; in [9], 6.83 µM and 3.25 µM; in assay [10], 3.44 µM.

Consider `COc1ccc(-c2nn(-c3cccc(Cl)c3)cc2-c2c(C#N)c(=O)n3[nH]c(-c4ccc(C)o4)nc3c2C#N)cc1`, for which the GI50 in assay [1] is 4.7 µM; in assay [2], 16.6 µM; in [3] it was 8.63 µM; in assay [4], 6.59 µM; in assay [5] it was 19.1 µM; in assay [6], 8.45 µM. For the same molecule, the GI50 is 5.91 µM in [7], 5.51 µM in assay [8], 5.49 µM in [9] and 3.23 µM in [10]. The TGI in assay [1] is 36.9 µM; in assay [2], > 50 µM; in [3], > 50 µM; in assay [4], > 50 µM; in [5], > 50 µM; in [6], > 50 µM. Moreover, the TGI is > 50 µM in assay [7], 21.1 µM in assay [8], 22.4 µM in assay [9] and 24.3 µM in assay [10].

Regarding `CC(C)(C)OC(=O)CC(S(=O)(=O)c1ccccc1)S(=O)(=O)c1ccccc1`, the GI50 in assay [1] was 12 µM; in assay [2], 1.87 µM; in [3], > 100 µM; in assay [4] it was 1.96 µM; in assay [5] it was 15.2 µM; in assay [6], 3.74 µM. In addition, the GI50 in assay [7] was 8.32 µM; in [8], 12.9 µM; in [9], 10.3 µM; in [10] it was 2.42 µM. Besides, the TGI in [1] is 25.7 µM; in [2] it was 3.71 µM; in [3], > 100 µM; in assay [4], 4.58 µM; in assay [5] it was 28.8 µM; in assay [6], 15.7 µM. Further, the TGI came to 23.3 µM in assay [7], 25.6 µM in [8], 22.7 µM in assay [9] and 5.57 µM in [10].

Take `O=[N+]([O-])/C(=C/C=C/c1ccccc1)c1ccccc1`: the GI50 in assay [1] was 1.92 µM; in [2], 1.86 µM; in assay [3] it was 3.33 µM; in assay [4], 2.47 µM; in assay [5], 1.76 µM; in assay [6], 2.74 µM. In addition, the GI50 was 3.27 µM in assay [7], 2.09 µM in [8], 2.02 µM in assay [9] and 1.47 µM in [10]. Moreover, the TGI turned out to be 4.28 µM in [1]; 4.22 µM in [2]; 10.6 µM in assay [3]; 7.22 µM in assay [4]; 3.22 µM in [5]; 9.32 µM in [6]. In addition, the TGI is 11.2 µM in [7], 4.23 µM in [8], 5.31 µM in assay [9] and 3.61 µM in assay [10].

For the molecule `CC(C)OC(=O)c1cc(NC(=S)OC(C)C)ccc1Cl`, the TGI in assay [1] was 30.4 µM; in [2] it was 53.4 µM; in assay [3], > 56.3 µM; in assay [4], > 56 µM; in assay [5] it was > 62.1 µM; in assay [6], 50.9 µM. Moreover, the TGI is > 64.8 µM in assay [7], > 57 µM in assay [8], > 79.6 µM in [9] and > 79.2 µM in assay [10].

Take `COc1ccc2c(c1)CCC1C2CCC2(C)C(NC(=O)CCCCC3CCSS3)CCC12` (configuration not stated): the GI50 in [1] is 14.1 µM; in [2], 8.21 µM; in [3], > 100 µM; in assay [4], 23 µM; in assay [5], > 100 µM; in [6], 31.8 µM. Besides, the GI50 in assay [7] is > 100 µM; in assay [8], 25.6 µM; in assay [9] it was 16.8 µM; in assay [10], 4.15 µM. The TGI in assay [1], in assay [2], in assay [3], in assay [4], in assay [5] and in assay [6] was > 100 µM each time. For the same molecule, the TGI in [7], in assay [8], in assay [9] and in [10] was > 100 µM each time.

Regarding `CN(C)CC(=O)N1CCc2c([nH]c3ccccc23)C1c1cccnc1` (configuration not stated), the results for the GI50 in [1] and in assay [5] were 21.5 µM and > 100 µM, respectively. Moreover, the TGI in assay [1] is 83.5 µM; in assay [2], > 100 µM; in assay [3] it was > 100 µM; in assay [4] it was > 100 µM; in assay [5], > 100 µM; in assay [6], > 100 µM. Besides, the TGI in assay [7], in assay [8], in [9] and in assay [10] was > 100 µM throughout.

Take `C#CCN(CCCOc1ccc(Cl)cc1Cl)CCCSC(=O)CCCCCN1/C(=C\C=C2/CCCC(/C=C/C3=[N+](CCCCCC(=O)[O-])c4ccccc4C3(C)C)=C2Cl)C(C)(C)c2ccccc21`: the GI50 in assay [1] is 1.94 µM; in assay [2] it was 4.12 µM; in [3] it was 1.12 µM; in assay [4], 2.02 µM; in assay [5], 3.02 µM; in assay [6], 1.8 µM. The GI50 is 1.99 µM in assay [7], 0.708 µM in assay [8], 1.61 µM in assay [9] and 1.48 µM in assay [10]. For the same molecule, the TGI is 4.64 µM in assay [1]; 21.9 µM in assay [2]; 3.64 µM in [3]; 6.72 µM in assay [4]; 10.9 µM in [5]; 4.03 µM in assay [6]. Further, the TGI was 6.83 µM in [7], 2.43 µM in assay [8], 3.36 µM in assay [9] and > 100 µM in [10].

For `OCCN1CCCN(CCCN2c3ccccc3Sc3ccc(C(F)(F)F)cc32)CC1`, the GI50 in assay [1] was 2.31 µM; in assay [2], 2.74 µM; in [3], 2.84 µM; in assay [4], 3.11 µM; in assay [5] it was 5.61 µM; in [6], 1.94 µM. For the same molecule, the GI50 is 3.46 µM in [7], 1.64 µM in assay [8], 1.97 µM in assay [9] and 2.39 µM in assay [10]. In addition, the TGI in assay [1] amounted to 6.15 µM; in [2], 10.3 µM; in assay [3], 11.7 µM; in assay [4], 13.4 µM; in [5], 17.8 µM; in assay [6], 3.65 µM. The TGI in [7] amounted to 12.2 µM; in [8], 3.03 µM; in assay [9] it was 3.9 µM; in assay [10], 5.2 µM.

Turning to `CN(Cc1cnc2nc(N)nc(N)c2n1)c1c(Cl)cc(C(=O)NC(CCC(=O)O)C(=O)O)cc1Br` (configuration not stated), the TGI in [1], in assay [2], in [3], in assay [4], in assay [5] and in assay [6] was > 100 µM throughout. The TGI in assay [7], in assay [8], in assay [9] and in [10] was > 100 µM each time. The GI50 in assay [2] is < 0.01 µM; in assay [3] it was 0.031 µM; in assay [4], > 100 µM; in assay [5], < 0.01 µM; in assay [7] it was < 0.01 µM; in [8], > 23.8 µM. The GI50 in assay [9] and in [10] was < 0.01 µM in each case.

Turning to `Cc1cn([C@H]2CN(O)C[C@@H](CO)O2)c(=O)[nH]c1=O`, the TGI in assay [1], in [2], in assay [3], in assay [4], in assay [5] and in assay [6] was > 100 µM throughout. The TGI in assay [7], in assay [8], in [9] and in assay [10] was > 100 µM throughout.

Take `Cc1nc2sc(C(=O)Nc3cccc(Cl)c3)c(N)c2cc1C(O)c1ccccc1` (configuration not stated): the GI50 in assay [1] is 2.52 µM; in assay [2] it was 0.384 µM; in [3], 2.33 µM; in assay [4] it was 4.64 µM; in assay [5], 0.923 µM; in assay [6], 1.39 µM. Further, the GI50 in assay [7] is 2.51 µM; in assay [8], 3.12 µM; in assay [9], 0.709 µM; in assay [10], 0.611 µM. In addition, the TGI was 16.9 µM in [1]; 46.8 µM in [2]; 20.3 µM in assay [3]; 31.2 µM in [4]; 17.2 µM in assay [5]; 22.2 µM in assay [6]. Further, the TGI is > 100 µM in assay [7], 22.3 µM in assay [8], > 100 µM in assay [9] and > 100 µM in assay [10].

Regarding `CN1CCC(C(=O)Nc2n[nH]c3nnc(-c4ccccc4)cc23)CC1`, the GI50 in assay [1], in [2], in [3], in assay [4], in [5] and in [6] was > 25 µM in each case. Besides, the GI50 in [7], in assay [8], in assay [9] and in [10] was > 25 µM throughout. The TGI in assay [1], in [2], in [3], in assay [4], in [5] and in assay [6] was > 25 µM in each case. The TGI in assay [7], in assay [8], in assay [9] and in assay [10] was > 25 µM in each case.

Consider `COc1cc2c(cc1OC)C(Sc1ccc(Cl)cc1)c1c(nc(N)c(C#N)c1N)O2` (configuration not stated), for which the GI50 in [1] is 1.37 µM; in [2], 1.19 µM; in assay [3], 1.47 µM; in [4], 1.53 µM; in [5] it was 1.67 µM; in assay [6], 1.58 µM. Besides, the GI50 was 1.39 µM in assay [7], 1.57 µM in assay [8], 1.63 µM in assay [9] and 0.917 µM in [10]. The TGI in [1] was found to be 2.76 µM; in [2], 2.66 µM; in assay [3] it was 2.86 µM; in [4], 2.96 µM; in assay [5], 3.05 µM; in assay [6] it was 2.96 µM. The TGI in assay [7] was 2.76 µM; in [8] it was 3.11 µM; in assay [9], 3.1 µM; in [10], 4.89 µM.

`O=C([CH-]C(=O)c1ccccc1)c1ccccc1.[CH2-]C.[CH2-]C.[Tl+3]`: the GI50 in assay [1] is > 100 µM; in assay [2] it was 15.4 µM; in assay [3], 31.2 µM; in assay [4], 16.8 µM; in [5], 15.3 µM; in [6], 45.6 µM. The GI50 in assay [7] is 15.7 µM; in [8], 33.5 µM; in assay [9] it was 18.5 µM; in assay [10], 6.63 µM. In addition, the TGI was > 100 µM in [1]; > 100 µM in assay [2]; > 100 µM in assay [3]; > 100 µM in assay [4]; 59.3 µM in assay [5]; > 100 µM in [6]. Further, the TGI was > 86.5 µM in assay [7], > 100 µM in assay [8], 68.5 µM in [9] and 41.8 µM in assay [10].

For the molecule `NCC[PH+](c1ccccc1)c1ccccc1.NCC[PH+](c1ccccc1)c1ccccc1.[Cl-].[Pt+4]`, the GI50 was > 100 µM in assay [1]; > 100 µM in assay [2]; 46.1 µM in assay [3]; > 100 µM in [4]; > 100 µM in assay [5]; > 100 µM in [6]. Moreover, the GI50 in assay [7] is > 100 µM; in [8], > 100 µM; in assay [9] it was > 100 µM; in [10], > 51.3 µM. Further, the TGI in [1], in assay [2], in assay [3], in assay [4], in [5] and in assay [6] was > 100 µM in each case. The TGI in assay [7], in assay [8], in assay [9] and in assay [10] was > 100 µM in each case.
